From patent publication US11078188B2, “Dihydroquinoxaline bromodomain recognition protein inhibitor, preparation method and use thereof” (SHANGHAI INSTITUTE OF MATERIA MEDICA, CHINESE ACADEMY OF …, priority 2017, dated 2021)

Assays:
[1] = Metabolic stability in human liver microsomes; format: in vitro ADME; settings: human liver microsomes 0.5 mg/ml, 1 μM compound, NADPH; for microsomal CLint at 1 μM: read-out: HLM Clint; for half-life at 1 μM: read-out: HLM t1/2
Procedure: The system which was 150 μl of human liver microsomes (final concentration: 0.5 mg/ml) was used for metabolic stability incubation. The system contained reduced coenzyme II (NADPH) (final concentration: 1 mM) and 1 μM compound, positive control or negative control. The reaction was terminated with acetonitrile containing (imiprozine, batch number: 3221; tinidazole, given) at 0 min, 5 min, 10 min, and 30 min, respectively. The mixture was vortexed for 10 min, centrifuged at 15000 rpm for 10 min, and 50 μl of the supernatant was injected into a 96-well plate. The metabolic stability of the compound was calculated by measuring the relative reduction in the original medicament.
(§1) HLM Clint (μl/min/mg) refers to the clearance rate of compounds in human liver microsomes having a unit of μl/min/mg; mLM Clint (μl/min/mg) refers to the clearance rate of compounds in mouse liver microsomes having a unit of μl/min/mg; HLM t1/2 (min) refers to the half-life of the compound in human liver microsomes having a unit of minutes; mLM t1/2 (min) refers to the half-life of the compound in mouse liver microsomes having a unit of minutes. TDI means that the mechanism inhibition test of compounds on CYP enzyme evaluates whether the compound has time-dependent inhibition of the enzyme.

BRD4 (I) = BRD4 (I) (Homo sapiens (Human), UniProt O60885); experiment: Fluorescence anisotropy (FA) binding test on BRD4 (I); settings: BRD4 (I) 10 nM, fluorescent (+)-JQ1 substrate 5 nM, read-out: BRD4 (1) IC50
Procedure: The binding activity of the compound to BRD4 (I) was tested using a fluorescence anisotropy (FA) method. The principle of FA test is to calculate and analyze the fluorescence polarization values in the horizontal and vertical directions by detecting the change of molecular weight before and after the interaction of fluorescein-labeled small molecules with other molecules. If the equilibrium of the binding between the fluorescently labeled small molecule and macromolecule is established, it will move slowly when excited, and the measured fluorescence polarization value will increase. If the binding between the fluorescently labeled small molecule and the macromolecule is replaced by another ligand, its rotation or flipping speed in the free state will be faster, and the emitted light will be depolarized relative to the plane of the excitation light, and the measured polarized light value will decrease to calculate the fluorescence anisotropy of the sample.
Expression and purification of the BRD4(I) recognition domain: colonies of newly transformed plasmid DNA from E. coli BL21(DE3)-condon plus-RIL cells were cultivated in 50 mL of Terrific Broth medium containing 50 μg/mL kanamycin and 34 μg/mL chloramphenicol at 37° C. overnight (starting culture). The starting culture was then diluted 100-fold in 1 L of fresh TB medium and the cells were grown at 37° C. to an optical density of about 0.8 at OD600 and then the temperature was lowered to 16° C. When the system was equilibrated at 16° C., the optical density at OD600 was approximately 1.2, and protein expression was induced with 0.2 mmol of isopropyl-β-D-thiogalactopyranoside (IPTG) overnight at 16° C. Bacteria were harvested by centrifugation (4000×g, 20 minutes, 4° C.) and stored as a pellet at −80° C. The cells expressing His 6-tagged protein was resuspend in lysis buffer [50 mmol 4-hydroxyethylpiperazineethanesulfonic acid (HEPES), 25° C., pH 7.5, 500 mmol NaCl, 10 mmol imidazole, 5% glycerol and freshly added 0.5 mmol of tris(2-carboxyethyl)phosphine hydrochloride (TCEP) and 1 mmol of phenylmethanesulfonyl fluoride (PMSF)] and lysed at 4° C. using JN 3000PLUS high pressure homogenizer (JNBIO-Guangzhou, China). The lysate was clarified by centrifugation (12,000×g for 1 hour at 4° C.) and applied to a nickel-nitriloacetate agarose column. The column was washed once with 50 mL of wash buffer containing 30 mmol of imidazole. The protein was eluted using imidazole in an elution buffer in a stepwise elution (100-250 mmol imidazole in 50 mmol HEPES, 25° C., pH 7.5, 500 mmol NaCl, 5% glycerol). All fractions were collected and monitored by SDS-polyacrylamide gel electrophoresis (Bio-Rad Criterion TM Precast Gels, 4-12% Bis-Tris, 1.0 mm, from Bio-Rad, CA). After 1 mmol of dithiothreitol (DTT) was added, the eluted proteins were treated with tobacco […] virus (TEV) protease overnight at 4° C. to remove the His6 tag. The protein was concentrated and further purified by size exclusion chromatography on a Superdex 75 16/60 HiLoad gel filtration column. The samples were monitored by SDS-polyacrylamide gel electrophoresis and concentrated to 8-10 mg/mL with gel filtration buffer, 10 mmol Hepes pH 7.5, 500 mM NaCl, 1 mmol DTT, and used for protein binding assays and crystallization.
The fluorogenic substrate was (+)-JQ1 linked to a fluorescent molecule and the working concentration was 5 nM. BRD4 (I) protein had 10 nM of working concentration and the total reaction system was 40 μL. The buffer was 50 mM 4-hydroxyethylpiperazineethanesulfonic acid (HEPES) pH 7.4, 150 mM NaCl, 0.5 mM 3[(3-cholamidopropyl)dimethylammonio]propanesulfonate (CHAPS). […] The final concentration of DMSO was chosen to be 0.2%, taking into account the solubility of the compound and the effect of DMSO on the assay. All measurements were made under these conditions. […]

2D6 = 2D6 (Homo sapiens (Human), UniProt P10635); experiment: Direct inhibition test (DI test), CYP 2D6; format: in vitro ADME; settings: human liver microsomes 0.2 mg/ml, 20 min
Procedure: (§2) The system which was 100 μl of human liver microsomes (final concentration: 0.2 mg/ml) was used for direct inhibition incubation. The system contained NADPH (final concentration: 1 mM), 10 μl compound, positive inhibitor cocktail (ketoconazole, 10 μl, quinidine 10 μl, sulfaphenazole 100 μl, naphthoflavone 10 μl, tranylcypromine 1000 μl), negative control 10 μl DMSO and mixed probe substrate (midazolam 10 μl, testosterone 100 μl, dextromethorphan 10 μl, diclofenac 20 μl, phenacetin 100 μl, mephenytoin 100 μl). The reaction was stopped after the system was incubated for 20 min. The relative activity of the enzyme was calculated by measuring the relative amount of production of the metabolite.

CYP enzyme = experiment: Mechanistic inhibition test (TDI test); format: in vitro ADME; settings: human liver microsomes 0.2 mg/ml; mechanism inhibition if kobs greater than 200
Procedure: The system which was 200 μl of human liver microsomes (final concentration: 0.2 mg/ml) was used for mechanistic inhibition incubation. The system contained 10 μl compound, mixed positive inhibitor (Troleandomycin 10 μl, Paroxetine 10 μl, Tienilic acid 10 μM, Furafylline 10 μl) or 10 μl negative control PRO. After NADPH (final concentration: 1 mM) or PBS was added, the system was incubated for 0 min, 5 min, 10 min and 30 min, then NADPH (final concentration: 1 mM) and mixed probe substrate (Midazolam 5 μM, Testosterone 50 μl, Dextromethophan 5 μM, Diclofenac 10 μl, Phenacetin 5 0 μM, S-(+)-mephenytoin 50 μl) were added and incubated for 10 min. Then the reaction was stopped. The test for positive inhibitor CYP2C19 was carried out alone, the inhibitor S-(+)-fluoxetine was 100 μM. The enzyme activity was calculated by measuring the relative production amount of metabolite. kobs was calculated.
as §1

CYP3A4 = CYP3A4 (Homo sapiens (Human), UniProt P08684); experiment: Direct inhibition test (DI test), CYP 3A4; format: in vitro ADME; settings: human liver microsomes 0.2 mg/ml, first of two values a/b (two 3A4 probes midazolam, testosterone; assignment not given), read-out: Direct inhibition rate (%) 3A4, first value
Procedure: as §2

3A4 = 3A4 (Homo sapiens (Human), UniProt P08684); experiment: Direct inhibition test (DI test), CYP 3A4; format: in vitro ADME; settings: human liver microsomes 0.2 mg/ml, 20 min; for Direct inhibition rate (%) 3A4, second value: second of two values a/b (two 3A4 probes midazolam, testosterone; assignment not given); for Direct inhibition rate (%) 3A4, first value: first of two values a/b (two 3A4 probes midazolam, testosterone; assignment not given)
Procedure: as §2

2C9 = 2C9 (Homo sapiens (Human), UniProt P11712); experiment: Direct inhibition test (DI test), CYP 2C9; format: in vitro ADME; settings: human liver microsomes 0.2 mg/ml, 20 min
Procedure: as §2

[2] = Metabolic stability in mouse liver microsomes; format: in vitro ADME; settings: for microsomal CLint at 1 μM: read-out: mLM Clint
CYP2C19 = CYP2C19 (Homo sapiens (Human), UniProt P33261); experiment: Direct inhibition test (DI test), CYP 2C19; format: in vitro ADME; settings: human liver microsomes 0.2 mg/ml, read-out: Direct inhibition rate (%) 2C19
Procedure: as §2

CYP2D6 = CYP2D6 (Homo sapiens (Human), UniProt P10635); experiment: Direct inhibition test (DI test), CYP 2D6; format: in vitro ADME; settings: human liver microsomes 0.2 mg/ml, read-out: Direct inhibition rate (%) 2D6
Procedure: as §2

CYP2C9 = CYP2C9 (Homo sapiens (Human), UniProt P11712); experiment: Direct inhibition test (DI test), CYP 2C9; format: in vitro ADME; settings: human liver microsomes 0.2 mg/ml, read-out: Direct inhibition rate (%) 2C9
Procedure: as §2

[3] = tested on: human myeloma cells MM.1S; experiment: MM.1S cell viability, CCK-8 method; format: cell-based
Procedure: The MM.1S cell line was tested for cell viability. The test methods were as follows: human myeloma cells MM.1S were treated with compound for 72 h, and the proliferation inhibition effect and degree of the compound were detected by CCK-8 method.

DLBCL cells = settings: cited from earlier work
[4] = tested on: MM.1S nude mice xenografts; experiment: Growth of MM.1S nude mice xenografts in vivo; parameters: species or system Balb/C nude mice; settings: 50 mg/kg qd/14 po
Procedure: Balb/C nude mice (6 weeks, female, Beijing Huafukang Biotechnology Co., Ltd.) were purchased, and the animals were conditioned for about one week before the test. MM.1S cells were cultured in vitro, and the cells in logarithmic growth phase were resuspended in serum-free RPMI1640 medium to adjust the cell concentration. The cell suspension was subcutaneously injected into forefoot armpit of the Balb/C nude mice with a syringe, and each animal was injected with 150 μL (8.0×10^6/mouse). When the average tumor volume grew to about ˜150 mm^3, the animals were divided into 4 groups containing solvent control group, 50 mg/kg OTX-015 group, and 20 and 50 mg/kg compound 6 groups by the randomized block method and each group contained six animals. […] During the administration period, the tumor diameter was measured twice a week, the body weight of the animals was weighed, the living state of the animals was observed, and abnormal conditions were recorded.
The formula for calculating tumor volume (TV): TV=½×a×b^2, where a and b represent length and width, respectively.
The relative tumor volume (RTV) was calculated based on the measured results, and the calculation formula was: RTV=Vt/V0. Wherein V0 was the measured tumor volume at the time of administration by cage (ie, d0), and Vt was the tumor volume at each measurement.
The relative tumor proliferation rate T/C (%) was calculated based on the measured results, and the calculation formula was as follows: T/C (%)=(TRTV/CRTV)×100%, TRTV: treatment group RTV; CRTV: negative control group RTV.

3A4, sequence (P08684 whole entry): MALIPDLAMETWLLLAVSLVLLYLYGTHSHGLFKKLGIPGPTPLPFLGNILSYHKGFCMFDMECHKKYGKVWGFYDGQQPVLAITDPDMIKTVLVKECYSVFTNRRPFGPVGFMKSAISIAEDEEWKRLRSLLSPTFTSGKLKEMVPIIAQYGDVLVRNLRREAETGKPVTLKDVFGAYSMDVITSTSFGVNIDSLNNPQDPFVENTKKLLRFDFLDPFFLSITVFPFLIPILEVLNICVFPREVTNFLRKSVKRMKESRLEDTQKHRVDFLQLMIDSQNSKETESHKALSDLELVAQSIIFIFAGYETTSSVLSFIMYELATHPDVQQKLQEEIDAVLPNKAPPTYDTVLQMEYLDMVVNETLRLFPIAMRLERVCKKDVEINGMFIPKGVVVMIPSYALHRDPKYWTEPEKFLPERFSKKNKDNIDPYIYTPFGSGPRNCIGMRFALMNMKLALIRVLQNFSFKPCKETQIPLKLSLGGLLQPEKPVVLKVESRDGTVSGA
CYP2C19, sequence (P33261 whole entry): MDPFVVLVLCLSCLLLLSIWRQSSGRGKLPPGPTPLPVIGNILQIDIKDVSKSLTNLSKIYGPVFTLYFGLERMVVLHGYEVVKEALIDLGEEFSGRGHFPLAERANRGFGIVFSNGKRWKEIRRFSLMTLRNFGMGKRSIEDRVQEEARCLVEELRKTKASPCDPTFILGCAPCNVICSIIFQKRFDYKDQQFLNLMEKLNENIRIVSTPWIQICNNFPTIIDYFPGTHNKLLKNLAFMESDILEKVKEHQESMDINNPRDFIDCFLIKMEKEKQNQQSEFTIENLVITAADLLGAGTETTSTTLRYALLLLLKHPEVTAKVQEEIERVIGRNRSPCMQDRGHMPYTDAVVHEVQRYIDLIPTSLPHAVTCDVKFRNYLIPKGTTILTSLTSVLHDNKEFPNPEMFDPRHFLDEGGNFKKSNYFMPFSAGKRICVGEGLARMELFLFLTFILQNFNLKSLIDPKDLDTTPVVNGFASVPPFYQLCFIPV
CYP2C9, sequence (P11712 whole entry): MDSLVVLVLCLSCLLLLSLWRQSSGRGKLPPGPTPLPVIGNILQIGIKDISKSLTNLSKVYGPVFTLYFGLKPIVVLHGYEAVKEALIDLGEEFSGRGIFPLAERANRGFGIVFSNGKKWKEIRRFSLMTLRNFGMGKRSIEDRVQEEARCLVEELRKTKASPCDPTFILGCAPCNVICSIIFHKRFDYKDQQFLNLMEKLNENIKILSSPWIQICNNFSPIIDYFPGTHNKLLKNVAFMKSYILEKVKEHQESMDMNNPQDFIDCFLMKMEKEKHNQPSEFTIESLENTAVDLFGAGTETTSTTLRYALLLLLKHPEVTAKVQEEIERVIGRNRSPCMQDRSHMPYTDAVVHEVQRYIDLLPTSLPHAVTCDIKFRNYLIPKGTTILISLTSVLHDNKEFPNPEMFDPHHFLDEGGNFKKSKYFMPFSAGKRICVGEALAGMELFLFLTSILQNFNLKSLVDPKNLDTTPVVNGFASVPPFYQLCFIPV
CYP3A4, sequence (P08684 whole entry): as the sequence (P08684 whole entry) above
CYP2D6, sequence (P10635 whole entry): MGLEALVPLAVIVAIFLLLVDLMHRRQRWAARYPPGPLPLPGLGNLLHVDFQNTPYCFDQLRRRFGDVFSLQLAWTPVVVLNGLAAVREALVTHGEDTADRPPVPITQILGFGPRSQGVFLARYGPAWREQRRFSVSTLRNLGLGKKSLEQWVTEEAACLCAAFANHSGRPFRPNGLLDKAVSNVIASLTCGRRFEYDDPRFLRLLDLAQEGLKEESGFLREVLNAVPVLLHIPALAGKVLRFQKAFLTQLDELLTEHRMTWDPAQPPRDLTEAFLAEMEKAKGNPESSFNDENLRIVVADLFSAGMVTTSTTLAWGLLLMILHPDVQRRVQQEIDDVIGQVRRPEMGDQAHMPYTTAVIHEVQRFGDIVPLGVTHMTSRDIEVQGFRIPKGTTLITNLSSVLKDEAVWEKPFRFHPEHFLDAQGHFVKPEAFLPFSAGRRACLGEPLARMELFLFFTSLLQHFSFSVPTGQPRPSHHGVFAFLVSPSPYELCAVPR
2C9, sequence (P11712 whole entry): as the sequence (P11712 whole entry) above
2D6, sequence (P10635 whole entry): as the sequence (P10635 whole entry) above

Row | SMILES | microsomal CLint at 1 μM [1] [µL/min/mg] | half-life at 1 μM [1] [min] | IC50 (BRD4 (I)) [nM] | TDI (CYP enzyme) | inhibition at 20 min (CYP3A4) [%] | Direct inhibition rate (%) 3A4, second value (3A4) [%] | half-life at 1 μM ([2]; read-out: MLM t1/2) [min] | microsomal CLint at 1 μM [2] [µL/min/mg] | inhibition at 20 min (CYP2C19) [%] | inhibition at 20 min (CYP2D6) [%] | inhibition at 20 min (CYP2C9) [%] | Direct inhibition rate (%) 3A4, first value (3A4) [%] | further results
1 | C[C@@H]1C(=O)N(C)c2ccc(-c3nc(C(=O)N4CCCN(C)CC4)nn3-c3ccccc3)cc2N1C1CCCC1 [Example 8] | 58 | 23.9 | 9.8 | no | 5 | 6 | 22.4 | 62 | 35 |  |  |  | Direct inhibition rate (%) 2D6 (2D6): no; Direct inhibition rate (%) 2C9 (2C9): no
2 | Cc1ccc(-n2nc(C(=O)N3CCN(C)CC3)cc2-c2ccc3c(c2)N(C2CCCC2)[C@H](C)C(=O)N3C)cc1 [Example 26] | 66 | 21 | 5.1 | no | 35 | 37 | 27 | 52 | 34 | 4 | 39 |  | 
3 | Cc1ccc(-n2nc(C(=O)N3C[C@@H](C)N[C@@H](C)C3)cc2-c2ccc3c(c2)N(C2CCCC2)[C@H](C)C(=O)N3C)cc1 [Example 27] | 55 | 25 | 4.9 | no |  | 47 |  | 6 | 19 | 6 | 27 | 24 | half-life at 1 μM ([2]; read-out: half-lives in mouse liver microsomes): 248 min
4 | Cc1ccc(-n2nc(C(=O)N3CCN(C)CC3)nc2-c2ccc3c(c2)N(C2CC2)C(C)C(=O)N3C)cc1 (stereo not drawn) [Example 33] |  |  | 15.7 | no |  | 12 |  |  |  |  |  | 7 | HLM Clint [1]: 22 µL/min/mg; HLM t1/2 [1]: 62 min; IC50 ([3]; 72 h treatment, CCK-8): 10.7 ± 2.59 nM; inhibitory activity against the MM.1S cell line (in words) ([3]; compared with positive (+)-JQ1): better inhibitory activity against the MM.1S cell line than the positive (+)-JQ1; MLM t1/2 [2]: 107 min; mLM Clint [2]: 13 µL/min/mg
5 | Cc1sc2c(c1C)C(c1ccc(Cl)cc1)=N[C@@H](CC(=O)Nc1ccc(O)cc1)c1nnc(C)n1-2 [OTX-015, reference compound] |  |  |  |  |  |  |  |  |  |  |  |  | IC50 (DLBCL cells): 192 nM; RTV (mean SD) [4]: 603.15; T/C (%) [4]: 49.90%; TV (mm^3, mean) d0 ([4]; d0 (at start of administration)): 184.48 mm^3; TV (mm^3, mean) d14 ([4]; d14): 886.75 mm^3
